We go through 8 molecules from PubChem BioAssay (NCI).

Holding throughout (test): DTP human tumour cell line panel, 48 h
Assay [1] has as its system IGROV1 ovarian.
The test system of assay [2] is COLO 205 colon.
Assay [3] has as its system SK-MEL-28 melanoma.
Assay [4] has as its system UACC-257 melanoma.
For assay [5], the system named is NCI-H522 lung.
Assay [6] has as its system SF-295 CNS.
For assay [7], the system named is LOX IMVI melanoma.
Assay [8] concerns NCI-H226 lung.
Assay [9] concerns 786-0 renal.
In assay [10] the test system is SF-539 CNS.
Assay [11] has as its system MCF7 breast.
Assay [12] deals with SNB-75 CNS.
Assay [13] has as its system MDA-MB-435.
Assay [14] relates to OVCAR-3 ovarian.
Assay [15] relates to M14 melanoma.
Assay [16] relates to CAKI-1 renal.
Assay [17] relates to SK-MEL-2 melanoma.
The subject of assay [18] is SR leukemia.
Assay [19] deals with UO-31 renal.
Assay [20] concerns RPMI-8226 leukemia.

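Growth conditions: 96-well plates. Treatment: test compound, 48 hours, 5 concentrations. Analysis: linear interpolation between bracketing concentrations; unreached endpoints set to highest concentration. TGI is the concentration that stops growth completely.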

Broadly, the TGI is the concentration giving total growth inhibition. Read a high TGI as less potent growth arrest. Turning to `CC1=C(C#N)C23C(=O)c4ccccc4C(O)=C2C(=O)C=CC3(O)N1` (stereo not drawn), the TGI was 17.2 µM in assay [1]; > 100 µM in [2]; 5.23 µM in assay [3]; 4.56 µM in assay [4]; 4.81 µM in assay [5]; 66.9 µM in [6]. The TGI in assay [7] turned out to be 18.9 µM; in assay [8] it was 32 µM; in [9], 28.1 µM; in [10] it was 8.83 µM; in assay [11] it was 4.59 µM; in assay [12], 4.56 µM. Also, the TGI in assay [13] is 9.37 µM; in assay [14], > 100 µM; in assay [15], 13 µM; in assay [16], 23.3 µM; in assay [17], 22.5 µM; in assay [18], 1.5 µM. In assay [19], this molecule came in with a TGI of 7.55 µM.
With `N=c1oc2c(Br)cc(Br)cc2cc1C(=O)Nc1ccccn1`, the TGI in assay [1], in [2], in [3], in [4], in assay [5] and in assay [7] was > 100 µM in each case. Further, the TGI in assay [8], in assay [9], in assay [10], in assay [11], in assay [12] and in assay [13] was > 100 µM throughout. Besides, the TGI in assay [14] is > 100 µM; in [15], > 100 µM; in assay [20] it was > 100 µM; in assay [16], > 100 µM; in assay [17], 91.8 µM; in [18], > 100 µM.
As to `CCOC(=O)N1CC2(C)C=CC1C(C(=O)OC)C2` (stereo not drawn), the TGI in assay [1], in assay [2], in assay [3], in assay [4], in assay [5] and in [6] was > 100 µM each time. Besides, the TGI in assay [7], in assay [8], in assay [9], in assay [11], in [12] and in assay [13] was > 100 µM each time. Moreover, the TGI in assay [14], in assay [15], in assay [20], in assay [16], in [17] and in assay [18] was > 100 µM each time. Moreover, the TGI in [19] was > 100 µM.
As to `CCOC(=O)CC(=O)C(=O)NNC1=NCCN1`, the TGI in [1], in [2], in assay [3], in [4], in assay [5] and in assay [6] was > 100 µM in each case. For the same molecule, the TGI in assay [7], in assay [8], in assay [9], in assay [10], in assay [11] and in assay [12] was > 100 µM throughout. Besides, the TGI in assay [13], in [14], in assay [15], in [20], in [17] and in assay [18] was > 100 µM each time. The TGI in assay [19] is > 100 µM.
Regarding `O=c1[nH]c(=O)n(C2OC(CO)C(O)C2O)c2ncc(-c3ccc(-c4ccccc4)cc3)nc12` (stereo not drawn), the TGI in assay [1], in assay [2], in [4], in [5], in [6] and in assay [7] was > 20 µM each time. Moreover, the TGI in [8], in assay [9], in assay [10], in assay [11], in assay [12] and in assay [13] was > 20 µM each time. The TGI in [20], in [16], in assay [17], in assay [18] and in [19] was > 20 µM in each case.
For `C=CCOc1ccc(/C(N=Nc2ccc(C)cc2)=N/NC(=O)c2ccccc2)cc1OC`, the TGI is 62.1 µM in [1]; 66.1 µM in assay [2]; 51.3 µM in assay [3]; 49.1 µM in assay [4]; 49.6 µM in [5]; > 100 µM in [6]. Further, the TGI in assay [7] was 41.5 µM; in assay [8], 58.4 µM; in assay [9], > 100 µM; in [11], 83.6 µM; in assay [12], 65.6 µM; in assay [13] it was 47.3 µM. For the same molecule, the TGI in [14] was > 100 µM; in [15] it was 58.3 µM; in assay [16] it was > 100 µM; in assay [17], 73.3 µM; in [18] it was 25 µM; in [19], 73.4 µM.
In the case of `O=c1c(-c2c(-c3ccccc3)oc3ccc(Cl)cc3c2=O)c(-c2ccccc2)oc2ccc(Cl)cc12`, the TGI in assay [1] was > 100 µM; in [2], > 100 µM; in [3], > 100 µM; in [4], > 100 µM; in [5] it was > 100 µM; in [6] it was > 79.4 µM. Moreover, the TGI in assay [7] is > 100 µM; in assay [8], > 100 µM; in assay [9], > 100 µM; in assay [10] it was > 100 µM; in [11], > 100 µM; in [12], > 62.2 µM. Besides, the TGI in [13], in assay [14], in [15], in assay [20], in assay [16] and in assay [17] was > 100 µM in each case. Further, the TGI in [18] is > 100 µM.
Turning to `O=C(Nc1ccc(Cl)cc1)NS(=O)(=O)c1coc2ccccc2c1=O`, the TGI in [1], in assay [2], in assay [3], in assay [4], in assay [5] and in assay [6] was > 10 µM in each case. The TGI in [7], in [8], in assay [9], in assay [10], in [11] and in assay [12] was > 10 µM each time. Moreover, the TGI in [13], in [14], in assay [15], in [20], in assay [16] and in assay [17] was > 10 µM in each case. For the same molecule, the TGI in [18] is > 10 µM.
